In publication PMC6382874, “Succinylation-dependent mitochondrial translocation of PKM2 promotes cell survival in response to nutritional stress” (Cell Death & Disease, 2019):
Where two headings read alike, the source gives them in different places.

Experiments:
PKM1 = biological target: T1, PKM1 (Homo sapiens, UniProt P14618); experiment: fluorescent PK-LDH coupled assay, PKM1; format: biochemical; details: recombinant enzyme, PK-LDH coupled assay; read-out: IC50 (PKM1)
T1 construct: His-tag (N); made in house; host or cells: Escherichia coli BL21
Protocol: (§1) Human cDNA for PKM2, PKM1, and VDAC3 were separately cloned into a pET28a (+) and pGEX-4T-1 vector with an N-terminal His-tag and N-terminal GST-tag and purified from the Escherichia coli strain BL21 (Invitrogen) using Ni–agarose beads and GST agarose beads (Qiagen) as described previously. PKL was purchased from Sino Biological Inc. in China.
(§2) Pyruvate kinase activity was measured with a fluorescent pyruvate kinase–lactate dehydrogenase coupled assay as described previously. All compounds were tested in a kinetic mode by coupling the generation of pyruvate by pyruvate kinase to the depletion of NADH through lactate dehydrogenase. For PKM2, 40 μL of buffer (50 mM Tris–HCl, pH 7.5, 10 mM KCl, 5 mM MgCl2), 1 μL of compound and 5 μL of enzyme solution were dispensed into Corning black solid 96-well plates and incubated for 15 min. Totally, 55 μL of substrate mix (final concentration, 0.5 mM PEP, 4.0 mM ADP, 0.12 mM NADH, 0.25 mM FBP, and 1 unit LDH) were then added, and the plates were placed in a FlexStation3 (Molecular Devices), followed by determination of NADH fluorescence at 30 s exposure intervals for 3–6 min. Data were collected on a FlexStation3.

PKL = biological target: T2, PKL (Homo sapiens, UniProt P30613); experiment: fluorescent PK-LDH coupled assay, PKL; format: biochemical; details: PK-LDH coupled assay; read-out: IC50 (PKL)
T2 construct: purchased Sino Biological Inc
Protocol: as §1, §2

HCT116 cells = experiment: cell viability test, HCT116; format: cell-based, human; details: cell viability, 48 h, read-out: IC50 (HCT116)
Protocol: We assessed the anti-tumor effects of compound 8 by evaluation of cancer cell viability. Compound 8 reduced cell viability with an IC50 of about 5 µM in MTT reduction assays in HCT116, MCF7, and H1299 cells (Table 2). […] To determine whether cancer cell death brought about by compound 8 is PKM2 dependent, PKM2 was knocked down in HCT116 cells using two different shRNA sequences that specifically targeted exon 10 without interfering with PKM1 expression. Compound 8 is an inhibitor which causes a loss of function of PKM2. If PKM2 is a specially targeted by compound 8, its knockdown should render cells more vulnerable to compound 8-mediated PKM2 inhibition since shRNA and compound 8 work synergistically by reducing the intracellular drug target concentration.
Cells were seeded in 96-well plates at 5000 cells/well in DMEM media overnight. Cells were treated with different concentrations of test compound for 48 h at 37 °C in 5% CO2. Cell viability was assayed with the MTS assay (Promega) and trypan blue staining according to the manufacturer’s instructions.

[1] = test system: outer mitochondrial membrane permeability; experiment: NADH oxidation assay in mitochondria isolated from HCT116 cells; format: cell-based, human; details: 20 µM, 8 h
Protocol: Fig. 6 Compound 8 blocks PKM2 mitochondrial translocation under nutritional stress and inhibits tumor growth in vivo. a Compound 8 blocks glucose starvation induced PKM2 mitochondrial translocation. Isolation of mitochondria and immunoblot of PKM2, tubulin and Tom 40 were carried out with or without compound 8 treatment. b Compound 8 disrupts interaction of PKM2 and VDAC3. HCT116 cells were transfected with HA-tagged PKM2, cells were harvested and subjected to stag pull down after 8 h 20 µM compound 8 treatment. c Compound 8 induces VDAC3 for degradation. cells were harvested and evaluated VDAC3 protein levels after 8 h 10 or 20 µM compound 8 treatment. d, e Compound 8 caused a decrease in the rate of NADH oxidation. After 8 h of treatment with 20 µM compound 8, HCT116 cells mitochondria were isolated for NADH oxidation assays. NAD/NADH ratios in HCT116 cell lysates were evaluated by LC–MS. f Compound 8 inhibited ATP production in HCT116 cells. g The tumor volume (n = 7) of HCT116 xenografts from mice with intraperitoneal injection of compound 8 and vehicle control […]
NADH oxidation in the mitochondria was measured by resuspending mitochondria isolated from HCT116 cells after knockdown or overexpression of PKM2, K433E, K433R, PKM1, or treatment with 20 μM compound 8 for 8 h in 25 mM NADH. Absorbance was monitored at λ = 340 nm. […]

PKM2 = PKM2 (Homo sapiens, UniProt P14618); experiment: fluorescent pyruvate kinase-lactate dehydrogenase (PK-LDH) coupled assay, PKM2; format: biochemical; set-up: His-tag (N); made in house; host or cells: Escherichia coli BL21; details: for selectivity for PKM2 over PKM1 and PKL: Supplementary Figure S4c
Protocol: A random screening of an in-house small molecule library (~1000 total molecules) was undertaken to identify new PKM2 modulators, which can block the interaction of PKM2 and VDAC3. The activity of these test compounds was assessed with a fluorescent PK-LDH coupled assay by a previously reported method (Supplementary Figure S4a)[37]. […] We undertook structural optimization by chemical modification. We designed new compounds utilizing a methyl group instead of the NP-1 chlorine moiety. Synthesis of target compounds was carried out according to the six-step protocol outlined in Supplementary Figure S4d, which was based on a previously described procedure[39],[40].
as §1, §2

Chain of PKM2 (P14618 whole entry): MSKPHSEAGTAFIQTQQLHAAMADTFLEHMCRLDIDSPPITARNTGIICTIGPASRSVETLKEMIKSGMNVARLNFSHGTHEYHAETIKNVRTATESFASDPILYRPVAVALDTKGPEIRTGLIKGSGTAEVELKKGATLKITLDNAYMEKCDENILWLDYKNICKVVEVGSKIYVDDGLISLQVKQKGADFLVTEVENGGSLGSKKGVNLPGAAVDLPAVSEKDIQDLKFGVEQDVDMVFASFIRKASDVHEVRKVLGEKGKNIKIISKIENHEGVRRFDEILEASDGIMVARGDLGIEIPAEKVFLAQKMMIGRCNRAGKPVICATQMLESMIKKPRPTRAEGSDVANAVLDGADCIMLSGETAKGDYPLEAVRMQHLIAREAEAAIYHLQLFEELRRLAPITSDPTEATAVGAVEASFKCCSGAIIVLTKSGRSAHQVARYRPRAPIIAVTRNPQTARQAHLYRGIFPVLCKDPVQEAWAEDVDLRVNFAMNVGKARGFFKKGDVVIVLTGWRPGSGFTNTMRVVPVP
T1 sequence (P14618 1-531 isoform P14618-2): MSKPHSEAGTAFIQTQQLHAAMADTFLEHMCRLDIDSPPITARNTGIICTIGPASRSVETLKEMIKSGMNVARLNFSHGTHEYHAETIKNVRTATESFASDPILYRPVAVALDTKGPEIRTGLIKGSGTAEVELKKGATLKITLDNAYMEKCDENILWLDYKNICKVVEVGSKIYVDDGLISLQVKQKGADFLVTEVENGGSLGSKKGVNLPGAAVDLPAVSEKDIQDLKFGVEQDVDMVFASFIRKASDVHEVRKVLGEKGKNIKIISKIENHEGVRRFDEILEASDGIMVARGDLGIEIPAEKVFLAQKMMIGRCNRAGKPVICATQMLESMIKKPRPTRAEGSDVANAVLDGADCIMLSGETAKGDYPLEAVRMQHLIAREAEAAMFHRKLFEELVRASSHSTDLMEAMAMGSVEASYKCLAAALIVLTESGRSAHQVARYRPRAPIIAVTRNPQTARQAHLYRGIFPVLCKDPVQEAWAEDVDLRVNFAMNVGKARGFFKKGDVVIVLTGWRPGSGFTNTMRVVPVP
T2 sequence (P30613 1-543 isoform P30613-2, species assumed): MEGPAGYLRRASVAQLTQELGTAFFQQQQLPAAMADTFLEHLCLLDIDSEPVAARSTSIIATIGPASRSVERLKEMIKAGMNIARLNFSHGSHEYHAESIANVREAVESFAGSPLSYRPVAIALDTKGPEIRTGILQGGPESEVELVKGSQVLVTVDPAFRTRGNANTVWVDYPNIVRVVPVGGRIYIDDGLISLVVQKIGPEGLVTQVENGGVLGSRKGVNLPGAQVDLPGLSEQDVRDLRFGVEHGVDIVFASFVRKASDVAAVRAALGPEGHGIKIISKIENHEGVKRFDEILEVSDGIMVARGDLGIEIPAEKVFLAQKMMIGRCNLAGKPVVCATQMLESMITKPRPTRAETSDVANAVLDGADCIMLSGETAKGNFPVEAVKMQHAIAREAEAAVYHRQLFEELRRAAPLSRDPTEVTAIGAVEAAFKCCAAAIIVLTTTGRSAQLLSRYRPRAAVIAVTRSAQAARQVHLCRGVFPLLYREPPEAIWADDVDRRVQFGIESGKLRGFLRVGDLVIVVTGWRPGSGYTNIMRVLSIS

CCCN(CCC)P(N)(=O)OCC1=CC(=O)c2ccccc2C1=O (stereo not drawn) [Compound 8]
IC50 (PKM1): 10.5 ± 1.52 µM | IC50 (PKL): 20.4 ± 3.54 µM | IC50 (HCT116 cells; Homo sapiens, HCT-116, 48 h): ~5 µM | IC50 (HCT116 cells): 5.19 ± 1.74 µM | rate of NADH oxidation in purified mitochondria [1]: reduced | selectivity for PKM2 over PKM1 and PKL (PKM2): markedly inhibited PKM2, but inhibited PKM1 and PKL to much smaller extent | selectivity for PKM2 over PKM1 and PKL (PKM2; listed as compound 8): PKM2 inhibitor of high selectivity | IC50 on PKM2 relative to NP-1 (PKM2; ratio of IC50 values of Table 1): about threefold lower than that of NP-1 | IC50 (PKM2; recombinant enzyme, PK-LDH coupled assay, 15 min preincubation, read-out: IC50 (PKM2)): 0.77 ± 0.3 µM
